Laboratory results: the NIST ThermoML archive (doi:10.1016/j.tca.2016.06.015)
± gives the expanded uncertainty stated by the source.

Assay: molar heat capacity at constant pressure
Conditions: Liquid, Flow calorimetry

O [water]
3000 kPa
Conditions	molar heat capacity at constant pressure [J/K/mol]
305.9 K	77.29 ± 4.9
315.6 K	72.96 ± 4.7
325.4 K	73.14 ± 4.7
335.8 K	76.56 ± 4.9
345.8 K	74.58 ± 4.7
354 K	78.01 ± 5
366.2 K	74.22 ± 4.7
381.2 K	77.65 ± 5
394.4 K	74.58 ± 4.7
407.3 K	76.2 ± 4.9
419.9 K	76.38 ± 4.9
433.9 K	76.02 ± 4.9

CCCCCCCCCC [decane]
4000 kPa
Conditions	molar heat capacity at constant pressure [J/K/mol]
305.7 K	293.1 ± 18
316.2 K	305.91 ± 20
326.5 K	304.48 ± 20
335.3 K	315.87 ± 20
344 K	324.4 ± 21
354.1 K	322.98 ± 20
366.8 K	327.25 ± 21
377.6 K	340.05 ± 21
389.8 K	335.78 ± 21
401.5 K	344.32 ± 21
423.6 K	361.4 ± 23
432.6 K	367.09 ± 23
443.4 K	372.78 ± 24
453.9 K	377.05 ± 24
463.9 K	389.85 ± 24
475.4 K	396.97 ± 26
486.6 K	419.73 ± 27
496 K	414.04 ± 27
504.1 K	432.54 ± 27
516.7 K	415.46 ± 27
528.9 K	424 ± 27
539.4 K	433.96 ± 27
551.9 K	453.88 ± 28
564.4 K	453.88 ± 28
574.2 K	470.95 ± 30
584.4 K	488.03 ± 31
595.2 K	507.95 ± 33
603.1 K	513.64 ± 33
608.6 K	486.6 ± 31
614.1 K	497.99 ± 31
